We go through two compounds from US9616125B2, “Stable nocathiacin lyophilized injection agent” (priority 2013, dated 2017).

Data set [1] in a line: Aqueous solubility of nocathiacin I versus pH (shake 24 h, filtration, HPLC).
Protocol: Excessive purified material of nocathiacin I is added in test tubes with stopper respectively, and a certain amounts of buffer solutions with pH 2, pH 3, pH 4, pH 5, pH 6 and pH 7 are added to ensure that the solutions are in a supersaturated state all the time, and the solutions are shaken for 24 h under room temperature. Then the solutions are filtered through a 0.22 millipore filter, and the subsequent filtrate is taken and fed in a high performance liquid chromatography to measure the drug contents. The chromatogram conditions are as follows. • Chromatographic column: Waters Symmetry, 150 mm×4.6 mm, 5 μm.
Mobile phase: A. distilled water containing 0.05% TFA; and B. acetonitrile containing 0.05% TFA.
Gradient: Gradient elution for 32 min, 30%-60% B.
Column temperature: 40° C., and rate of flow: 1 ml/min
Detection wavelength: 362 nm, and sample volume: 10 μl.
Data set [2] concerns vancomycin-resistant enterococcus (VRE). The following applies: cited from earlier work.
The test system of data set [3] is penicillin-resistant streptococcus pneumoniae (PRSP). The following applies: cited from earlier work.
Data set [4] relates to methicillin-resistant staphylococcus aureus (MRSA). The conditions noted are these: cited from earlier work.
The test system of data set [5] is mycobacterium tuberculosis. The following applies: cited from earlier work.

As to `C=C(NC(=O)c1csc(-c2nc3c(cc2O)-c2nc(cs2)C(=O)N[C@@H]([C@@H](C)O)C(=O)N/C(=C(\C)OC)c2nc(cs2)C(=O)N[C@@H]2c4nc(cs4)C(=O)N[C@@H](COC(=O)c4c5c6c(cccc6n4O)COC(=O)[C@@H](O[C@H]4C[C@](C)(O)[C@H](N(C)C)[C@H](C)O4)[C@H]2OC5)c2nc-3cs2)n1)C(N)=O.O=C(O)C(F)(F)F` [nocathiacin I], in data set [1] (pH value of the liquid formulation controlled below 6), the “concentration of nocathiacin I solution that can be obtained” value was “more than 0.5 mg/mL”. The “solubility of nocathiacin I as a function of pH” value in data set [1] (within a scope of pH 1-7, FIG. 1) is “decreases with the increase of pH value”.
For the compound nocathiacin, the effective concentration entry in data set [2], in data set [3], in data set [4] and in data set [5] was “less than 1 μg/ml” each time.
